Source: the NIST ThermoML archive (doi:10.1016/j.fluid.2012.05.006)
Numbers after ± are expanded uncertainties.

Experiment: activity coefficient (dimensionless); of the first substance listed, at infinite dilution; xn = mol fraction of the nth substance listed
Settings: Liquid, Chromatography, x1 = 0

| activity coefficient (303.15 K) | activity coefficient (313.15 K) | activity coefficient (323.15 K) | activity coefficient (333.15 K) | activity coefficient (343.15 K) | activity coefficient (353.15 K) | activity coefficient (363.15 K) | activity coefficient (303.15 K, 101 kPa) | activity coefficient (313.15 K, 101 kPa) | activity coefficient (323.15 K, 101 kPa) | activity coefficient (333.15 K, 101 kPa) | activity coefficient (343.15 K, 101 kPa) | activity coefficient (353.15 K, 101 kPa) | activity coefficient (363.15 K, 101 kPa) | SMILES |
| --- | --- | --- | --- | --- | --- | --- | --- | --- | --- | --- | --- | --- | --- | --- |
| 6.52 ± 0.23 | 6.27 ± 0.22 | 5.89 ± 0.21 | 5.58 ± 0.2 | 5.27 ± 0.19 | 5.09 ± 0.19 | 4.93 ± 0.18 |  |  |  |  |  |  |  | C1CCCCC1 [cyclohexane] + CCCCCCCCn1cc[n+](C)c1.O=[N+]([O-])[O-] |
| 18.5 ± 0.66 | 16.8 ± 0.6 | 15.4 ± 0.55 | 14.1 ± 0.51 | 13.3 ± 0.48 | 12.3 ± 0.44 | 11.4 ± 0.41 |  |  |  |  |  |  |  | CC(C)CC(C)(C)C [2,2,4-trimethylpentane] + CCCCCCCCn1cc[n+](C)c1.O=[N+]([O-])[O-] |
| 15.4 ± 0.55 | 14.3 ± 0.51 | 13.3 ± 0.48 | 12.3 ± 0.44 | 11.8 ± 0.42 | 11.2 ± 0.4 | 10.4 ± 0.37 |  |  |  |  |  |  |  | CCCCCCC [heptane] + CCCCCCCCn1cc[n+](C)c1.O=[N+]([O-])[O-] |
| 0.38 ± 0.09 | 0.37 ± 0.09 | 0.35 ± 0.09 | 0.34 ± 0.09 | 0.33 ± 0.09 | 0.31 ± 0.09 | 0.3 ± 0.09 |  |  |  |  |  |  |  | CCO [ethanol] + CCCCCCCCn1cc[n+](C)c1.O=[N+]([O-])[O-] |
| 17.9 ± 0.64 | 17 ± 0.61 | 16.2 ± 0.58 | 15.7 ± 0.56 | 15.2 ± 0.54 | 14.8 ± 0.53 | 14.1 ± 0.5 |  |  |  |  |  |  |  | CCCCCCCC [octane] + CCCCCCCCn1cc[n+](C)c1.O=[N+]([O-])[O-] |
| 0.6 ± 0.09 | 0.59 ± 0.09 | 0.58 ± 0.09 | 0.57 ± 0.09 | 0.56 ± 0.09 | 0.55 ± 0.09 | 0.54 ± 0.09 |  |  |  |  |  |  |  | CC#N [acetonitrile] + CCCCCCCCn1cc[n+](C)c1.O=[N+]([O-])[O-] |
|  |  |  |  |  |  |  | 2.05 ± 0.11 | 2.06 ± 0.11 | 2.06 ± 0.11 | 2.07 ± 0.11 | 2.07 ± 0.11 | 2.08 ± 0.11 | 2.09 ± 0.11 | CCc1ccccc1 [ethylbenzene] + CCCCCCCCn1cc[n+](C)c1.O=[N+]([O-])[O-] |
| 1.03 ± 0.09 | 1.02 ± 0.09 | 1.01 ± 0.09 | 1 ± 0.09 | 0.99 ± 0.09 | 0.98 ± 0.09 | 0.97 ± 0.09 |  |  |  |  |  |  |  | C1CCOC1 [tetrahydrofuran] + CCCCCCCCn1cc[n+](C)c1.O=[N+]([O-])[O-] |
| 0.94 ± 0.09 | 0.96 ± 0.09 | 0.97 ± 0.09 | 0.98 ± 0.09 | 0.99 ± 0.09 | 1 ± 0.09 | 1.01 ± 0.09 |  |  |  |  |  |  |  | c1ccccc1 [benzene] + CCCCCCCCn1cc[n+](C)c1.O=[N+]([O-])[O-] |
| 8.5 ± 0.3 | 7.8 ± 0.28 | 7.45 ± 0.26 | 6.94 ± 0.25 | 6.46 ± 0.23 | 6.19 ± 0.22 | 5.77 ± 0.21 |  |  |  |  |  |  |  | CCCCC [pentane] + CCCCCCCCn1cc[n+](C)c1.O=[N+]([O-])[O-] |
| 0.17 | 0.18 | 0.19 ± 0.09 | 0.2 ± 0.09 | 0.21 ± 0.09 | 0.22 ± 0.09 | 0.23 ± 0.09 |  |  |  |  |  |  |  | ClC(Cl)Cl [trichloromethane] + CCCCCCCCn1cc[n+](C)c1.O=[N+]([O-])[O-] |
| 12.1 ± 0.43 | 11.2 ± 0.4 | 10.5 ± 0.37 | 9.74 ± 0.35 | 9.05 ± 0.32 | 8.5 ± 0.3 | 8.16 ± 0.29 |  |  |  |  |  |  |  | CCCCCC [hexane] + CCCCCCCCn1cc[n+](C)c1.O=[N+]([O-])[O-] |
| 0.44 ± 0.09 | 0.43 ± 0.09 | 0.43 ± 0.09 | 0.42 ± 0.09 | 0.41 ± 0.09 | 0.41 ± 0.09 | 0.4 ± 0.09 |  |  |  |  |  |  |  | CC(C)O [propan-2-ol] + CCCCCCCCn1cc[n+](C)c1.O=[N+]([O-])[O-] |
| 1.65 ± 0.1 | 1.64 ± 0.1 | 1.63 ± 0.1 | 1.63 ± 0.1 | 1.62 ± 0.1 | 1.61 ± 0.1 | 1.6 ± 0.1 |  |  |  |  |  |  |  | CCOC(C)=O [ethyl acetate] + CCCCCCCCn1cc[n+](C)c1.O=[N+]([O-])[O-] |
| 0.26 ± 0.09 | 0.26 ± 0.09 | 0.25 ± 0.09 | 0.24 ± 0.09 | 0.23 ± 0.09 | 0.23 ± 0.09 | 0.22 ± 0.09 |  |  |  |  |  |  |  | CO [methanol] + CCCCCCCCn1cc[n+](C)c1.O=[N+]([O-])[O-] |
| 0.32 ± 0.09 | 0.33 ± 0.09 | 0.34 ± 0.09 | 0.36 ± 0.09 | 0.37 ± 0.09 | 0.38 ± 0.09 | 0.39 ± 0.09 |  |  |  |  |  |  |  | ClCCl [dichloromethane] + CCCCCCCCn1cc[n+](C)c1.O=[N+]([O-])[O-] |
| 23.1 ± 0.83 | 21.8 ± 0.78 | 20.9 ± 0.75 | 20.1 ± 0.72 | 19.6 ± 0.7 | 18.6 ± 0.67 | 18.2 ± 0.65 |  |  |  |  |  |  |  | CCCCCCCCC [nonane] + CCCCCCCCn1cc[n+](C)c1.O=[N+]([O-])[O-] |
|  | 0.41 ± 0.09 | 0.4 ± 0.09 | 0.38 ± 0.09 | 0.37 ± 0.09 | 0.36 ± 0.09 | 0.35 ± 0.09 |  |  |  |  |  |  |  | CCCO [propan-1-ol] + CCCCCCCCn1cc[n+](C)c1.O=[N+]([O-])[O-] |
| 7.91 ± 0.28 | 7.7 ± 0.27 | 7.37 ± 0.26 | 7.11 ± 0.25 | 6.81 ± 0.24 | 6.62 ± 0.23 | 6.41 ± 0.23 |  |  |  |  |  |  |  | CC1CCCCC1 [methylcyclohexane] + CCCCCCCCn1cc[n+](C)c1.O=[N+]([O-])[O-] |

| SMILES | activity coefficient (303.15 K) | activity coefficient (313.15 K) | activity coefficient (323.15 K) | activity coefficient (333.15 K) | activity coefficient (343.15 K) | activity coefficient (353.15 K) | activity coefficient (363.15 K) | activity coefficient (303.15 K, 101 kPa) | activity coefficient (313.15 K, 101 kPa) | activity coefficient (323.15 K, 101 kPa) | activity coefficient (333.15 K, 101 kPa) | activity coefficient (343.15 K, 101 kPa) | activity coefficient (353.15 K, 101 kPa) | activity coefficient (363.15 K, 101 kPa) |
| --- | --- | --- | --- | --- | --- | --- | --- | --- | --- | --- | --- | --- | --- | --- |
| ClC(Cl)(Cl)Cl [tetrachloromethane] + CCCCCCCCn1cc[n+](C)c1.O=[N+]([O-])[O-] | 1.16 ± 0.09 | 1.2 ± 0.09 | 1.24 ± 0.09 | 1.27 ± 0.1 | 1.3 ± 0.1 | 1.35 ± 0.1 | 1.39 ± 0.1 |  |  |  |  |  |  |  |
| Cc1cccc(C)c1 [1,3-dimethylbenzene] + CCCCCCCCn1cc[n+](C)c1.O=[N+]([O-])[O-] | 2.02 ± 0.11 | 2.03 ± 0.11 | 2.05 ± 0.11 | 2.06 ± 0.11 | 2.07 ± 0.11 | 2.08 ± 0.11 | 2.09 ± 0.11 |  |  |  |  |  |  |  |
| CC(C)=O [acetone] + CCCCCCCCn1cc[n+](C)c1.O=[N+]([O-])[O-] | 0.84 ± 0.09 | 0.83 ± 0.09 | 0.81 ± 0.09 | 0.79 ± 0.09 | 0.77 ± 0.09 | 0.76 ± 0.09 | 0.74 ± 0.09 |  |  |  |  |  |  |  |
| Cc1ccccc1C [1,2-dimethylbenzene] + CCCCCCCCn1cc[n+](C)c1.O=[N+]([O-])[O-] | 1.75 ± 0.1 | 1.77 ± 0.1 | 1.79 ± 0.11 | 1.8 ± 0.11 | 1.82 ± 0.11 | 1.84 ± 0.11 | 1.85 ± 0.11 |  |  |  |  |  |  |  |
| Cc1ccccc1 [toluene] + CCCCCCCCn1cc[n+](C)c1.O=[N+]([O-])[O-] | 1.41 ± 0.1 | 1.41 ± 0.1 | 1.42 ± 0.1 | 1.43 ± 0.1 | 1.44 ± 0.1 | 1.45 ± 0.1 | 1.46 ± 0.1 |  |  |  |  |  |  |  |
| Cc1ccc(C)cc1 [1,4-dimethylbenzene] + CCCCCCCCn1cc[n+](C)c1.O=[N+]([O-])[O-] | 1.98 ± 0.11 | 1.99 ± 0.11 | 2 ± 0.11 | 2.01 ± 0.11 | 2.01 ± 0.11 | 2.02 ± 0.11 | 2.03 ± 0.11 |  |  |  |  |  |  |  |
